Results published in paper PMC2614347, “A Novel Peptide Enhances Therapeutic Efficacy of Liposomal Anti-Cancer Drugs in Mice Models of Human Lung Cancer” (PLoS ONE, 2009).
Ends that are not written are not given here.

Tests used:
CL1-5-derived tumors = assay: In vivo homing and tissue distribution of phages; set-up: species or system SCID mice
Description: SCID mice were injected subcutaneously (s.c.) in the dorsolateral flank with 1×10^7 human NSCLC cells. The mice bearing size-matched lung cancer xenografts (approximately 500 mm^3) were injected i.v. with 10^9 pfu of the targeting or control phage. After perfusion, xenograft tumors and mouse organs were removed and homogenized. The phages bound to each tissue sample were recovered through the addition of ER2738 bacteria and titered on IPTG/X-Gal agar plates. In the peptide competitive inhibition experiments, the phages were injected along with 100 µg synthetic targeting peptide, control peptide or mutant peptide. The organs and tumor masses were fixed in Bouin's solution (Sigma, MO, USA). After fixation, the samples were embedded in paraffin blocks. The paraffin sections were deparaffinized, rehydrated, and subjected to immunostaining using the mouse M13 mAb as described above.

NPC-TW01 cells = assay: Phage binding, immunofluorescent staining; set-up: species or system human
SAS cells = assay: Phage binding, flow cytometry; set-up: species or system human
Description: (§1) The lung and other cancer cell lines were collected using PBS containing 50 mM EDTA, then incubated with phages or FITC-labeled peptides. For the peptide competitive inhibition assay, phages were mixed with different concentrations of the synthetic peptide and the mixture was incubated with the cells. After washing, the phage-bound cells were incubated with anti-M13 mAbs and then treated with FITC-conjugated goat anti-mouse IgG antibody. Cells were washed and analyzed with a flow cytometer (Becton Dickinson)
(§2) Fig. S2. The binding activity of PC5-2 to NSCLC cells was analyzed by flow cytometry. The samples included cells only (a, green), control phage (b, red), and PC5-2 (blue). The percentages indicate the fraction of cells gated for positive binding (c).

NNM cells = assay: Phage binding, flow cytometry; set-up: species or system human
Description: as §1, §2

[1] = test system: surgical specimens of human lung cancer (pulmonary adenocarcinoma); assay: Binding of phages and synthetic peptides to surgical specimens of lung cancer, immunohistochemistry
Description: For localization of peptide binding on lung cancer tissues, frozen sections of NSCLC tissues were prepared and incubated with phage clones or biotin-labeled peptides. For the peptide competitive inhibition assay, phages were mixed with the synthetic targeting or mutant peptide. The slides were subjected to routine immunohistochemical staining, [30]. All surgical specimens were obtained from the tissue bank of National Taiwan University Hospital (NTUH) with approval from the Institutional Review Board in NTUH (IRB9461702021).

PC13 cells [2] = assay: Phage binding to cells, immunohistochemical staining; set-up: species or system human; settings: immunohistochemistry, anti-M13 mAb
Description: (§3) Cells were plated and grown to about 80% confluence on cover slips. The cover slips were treated with 3% hydrogen peroxide plus 0.1% NaN3 to block endogenous peroxidase activity, and then incubated with phages. After the cover slips had been washed and fixed with 3% paraformaldehyde, they were incubated with HRP-labeled mouse anti-M13 mAb and treated with peroxidase substrate. For the peptide binding assays, 30 µg/ml FITC-labeled SP5-2 or control peptide was added on each cover slip and incubated. They were counterstained with Hoechst 33258 (Molecular Probes, OR, USA) and mounted with a mounting solution (Vector, CA, USA). The cells were then examined under a Leica universal microscope. The images were merged using the SimplePCI software (C-IMAGING, PA, USA).

oral cancer (SAS) cells = assay: as above; set-up: species or system human; settings: immunohistochemistry, anti-M13 mAb
Description: as §3

[3] = test system: normal epithelial cells (NNM) from nasal mucosa; assay: as above; set-up: species or system human; settings: immunohistochemistry, anti-M13 mAb
Description: as §3

[4] = test system: nasopharyngeal carcinoma cells (NPC-TW01); assay: as above; set-up: species or system human; settings: immunohistochemistry, anti-M13 mAb
Description: as §3

CL1-5 cells [5] = assay: as above; set-up: species or system human; settings: immunohistochemistry, anti-M13 mAb
Description: as §3

CL1-5 cells [6] = assay: Phage binding and peptide competition, flow cytometry; set-up: species or system human; settings: fraction of cells gated for positive binding
Description: as §1, §2

PC13 cells [7] = test system: PC13 cells
Description: (§4) FITC-labeled SP5-2 binding to NSCLC cells was analyzed by flow cytometry.

CL1-5 cells [8] = test system: CL1-5 cells
Description: as §4

H460-derived xenografts = assay: Ligand-targeted therapy of lung cancer xenografts; assay type: in vivo, SCID mice; settings: doxorubicin 1 mg/kg i.v. twice a week, eight injections
[9] = Pharmacokinetic and biodistribution study of doxorubicin formulations; assay type: in vivo, SCID mice; settings: 2 mg/kg i.v., n = 3 per time point
Description: At selected time points, three mice in each group were anaesthetized and sacrificed. Blood samples were collected through submaxillary punctures, and plasma samples were prepared. After perfusion, xenograft tumors and mouse organs were removed and homogenized.

NSCLC xenografts = assay: Doxorubicin autofluorescence microscopy of tumor sections; assay type: in vivo, SCID mice; settings: fluorescence microscope; 1, 4 and 24 hours post-injection
Source text: Tissue sections were imaged with a FLUAR 10×/0.50 NA lens and captured with a Roper Scientific CoolSnap HQ CCD camera. All images were captured in 8-bit signal depth and subsequently pseudo-colored.

CL1-5-derived xenografts = assay: Ligand-targeted therapy of lung cancer xenografts; assay type: in vivo, SCID mice; settings: doxorubicin 1 mg/kg i.v. twice a week, eight injections; n = 6
Description: Mice 4–6 weeks of age were injected s.c. in the dorsolateral flank with human NSCLC cells. […] Mouse body weights and tumor sizes were measured twice a week. Tumor volumes were calculated using the equation: length×(width)^2×0.52. Animal care was carried out in accordance with guidelines of Academia Sinica, Taiwan.

Description for A549 cells: as §4
Description for H23 cells: as §4
Description for H460 cells: as §4

Molecule: TDSILRSYDWTY [PC5-2]
- Immunohistochemical localization of phage in normal organs after i.v. injection (CL1-5-derived tumors; brain, heart and lung tissues): no reaction product detected
- Phage concentration in tumor masses relative to control organs (CL1-5-derived tumors; i.v. 10^9 pfu, recovered after perfusion, control organs brain, heart and lungs): 15 fold
- Immunohistochemical localization of phage in tumor tissues after i.v. injection (CL1-5-derived tumors; tumor sections, anti-M13 mAb): localize in tumor tissues
- Binding of phage to NPC-TW01 cells (NPC-TW01 cells): did not bind
- Binding of phage to SAS cells (SAS cells): did not bind
- Binding of phage to NNM cells (NNM cells): did not bind
- Recognition of tumor cells of NSCLC surgical specimens ([1]; frozen sections): recognized
- Reaction area, HLC 1 ([1]; human lung cancer surgical specimen HLC 1): +++ (>50%)
- Reaction area, HLC 2 ([1]; human lung cancer surgical specimen HLC 2): +++ (>50%)
- Reaction area, HLC 3 ([1]; human lung cancer surgical specimen HLC 3): - (0%)
- Reaction area, HLC 4 ([1]; human lung cancer surgical specimen HLC 4): + (<20%)
- Reaction area, HLC 5 ([1]; human lung cancer surgical specimen HLC 5): +++ (>50%)
- Reaction area, HLC 6 ([1]; human lung cancer surgical specimen HLC 6): ++ (50~20%)
- Reaction area, HLC 7 ([1]; human lung cancer surgical specimen HLC 7): ++ (50~20%)
- Reaction area, HLC 8 ([1]; human lung cancer surgical specimen HLC 8): ++ (50~20%)
- Reaction area, HLC 9 ([1]; human lung cancer surgical specimen HLC 9): + (<20%)
- Reaction area, HLC 10 ([1]; human lung cancer surgical specimen HLC 10): - (0%)
- Reaction area, HLC 11 ([1]; human lung cancer surgical specimen HLC 11): ++ (50~20%)
- Reaction area, HLC 12 ([1]; human lung cancer surgical specimen HLC 12): ++ (50~20%)
- Reaction area, HLC 13 ([1]; human lung cancer surgical specimen HLC 13): + (<20%)
- Reaction area, HLC 14 ([1]; human lung cancer surgical specimen HLC 14): - (0%)
- Reaction area, HLC 15 ([1]; human lung cancer surgical specimen HLC 15): +++ (>50%)
- Reaction area, HLC 16 ([1]; human lung cancer surgical specimen HLC 16): - (0%)
- Reaction area, HLC 17 ([1]; human lung cancer surgical specimen HLC 17): - (0%)
- Reaction area, HLC 18 ([1]; human lung cancer surgical specimen HLC 18): ++ (50~20%)
- Reaction area, HLC 19 ([1]; human lung cancer surgical specimen HLC 19): +++ (>50%)
- Reaction area, HLC 20 ([1]; human lung cancer surgical specimen HLC 20): +++ (>50%)
- Reaction area, HLC 21 ([1]; human lung cancer surgical specimen HLC 21): ++ (50~20%)
- Reaction area, HLC 22 ([1]; human lung cancer surgical specimen HLC 22): - (0%)
- Reaction area, HLC 23 ([1]; human lung cancer surgical specimen HLC 23): - (0%)
- Reaction area, HLC 24 ([1]; human lung cancer surgical specimen HLC 24): ++ (50~20%)
- Reaction area, HLC 25 ([1]; human lung cancer surgical specimen HLC 25): +++ (>50%)
- Reaction area, HLC 26 ([1]; human lung cancer surgical specimen HLC 26): +++ (>50%)
- Reaction area, HLC 27 ([1]; human lung cancer surgical specimen HLC 27): + (<20%)
- Reaction area, HLC 28 ([1]; human lung cancer surgical specimen HLC 28): ++ (50~20%)
- Reaction area, HLC 29 ([1]; human lung cancer surgical specimen HLC 29): - (0%)
- Reaction area, HLC 30 ([1]; human lung cancer surgical specimen HLC 30): ++ (50~20%)
- Reaction area, HLC 31 ([1]; human lung cancer surgical specimen HLC 31): ++ (50~20%)
- Reaction area, HLC 32 ([1]; human lung cancer surgical specimen HLC 32): - (0%)
- Reaction area, HLC 33 ([1]; human lung cancer surgical specimen HLC 33): ++ (50~20%)
- Reaction area, HLC 34 ([1]; human lung cancer surgical specimen HLC 34): +++ (>50%)
- Reaction area, HLC 35 ([1]; human lung cancer surgical specimen HLC 35): + (<20%)
- Reaction area, HLC 36 ([1]; human lung cancer surgical specimen HLC 36): ++ (50~20%)
- Binding of phage to PC13 cells (PC13 cells [2]): bound specifically
- Binding of phage to SAS cells (oral cancer (SAS) cells): bound neither
- Binding of phage to NNM cells [3]: nor to normal epithelial cells
- Binding of phage to NPC-TW01 cells [4]: bound neither
- Binding of phage to CL1-5 cells (CL1-5 cells [5]): bound specifically
- CL1-5 cells bound by phage (CL1-5 cells [6]): 42.6%

Molecule: TDSILRSYDWTY [SP5-2]
- Proportion of H23 cells bound by SP5-2 (H23 cells): 44.0%
- Proportion of A549 cells bound by SP5-2 (A549 cells): 44.3%
- Proportion of PC13 cells bound by SP5-2 (PC13 cells [7]): 20.1%
- Proportion of CL1-5 cells bound by SP5-2 (CL1-5 cells [8]): 43.0%
- Proportion of H460 cells bound by SP5-2 (H460 cells): 45.8%

Molecule: COc1cccc2c1C(=O)c1c(O)c3c(c(O)c1C2=O)C[C@@](O)(C(=O)CO)C[C@@H]3O[C@H]1C[C@H](N)[C@H](O)[C@H](C)O1 [FD, doxorubicin]
- Reduction of tumor size compared with PBS group (H460-derived xenografts): 14%
- Blood concentration of doxorubicin after administration ([9]; tail vein, spectrofluorometry): drops to background level within one hour
- AUC0-48 h, Nuclear ([9]; nuclear doxorubicin in tumor): 3.7 μg h/g tumor
- AUC0–48 hours of bioavailable doxorubicin (bound to nuclei) ([9]; tumor cell nuclei, spectrofluorometry): 3.7 µg·h/g
- Areas of tumor sections with detectable doxorubicin (NSCLC xenografts): no detectable doxorubicin
- Tumor size smaller than that in the PBS group (CL1-5-derived xenografts): 16%

Molecule: DMPKQLLAPWYY [PC5-4, phage clone displaying […]]
- Recovery of PC5-4 phage from tumor versus control organs (CL1-5-derived tumors; i.v., recovered after perfusion, SCID mice bearing NSCLC xenografts (Fig. S4)): higher than from control organs
